Publication PMC10222839, “Development of Novel Small-Molecule Activators of Pyruvate Kinase Muscle Isozyme 2, PKM2, to Reduce Photoreceptor Apoptosis” (Pharmaceuticals, 2023)
Values after ≈ are worked out from the molar mass of the structure shown.

Columns and labels:
[1] = biological target: T1, human recombinant PKM2 (Homo sapiens, UniProt P14618); experiment: Pyruvate kinase enzyme-coupled (LDH/NADH) assay with recombinant PKM2; format: biochemical
T1 construct: purchased Sigma SAE0021
Description: Recombinant Enzyme. An enzyme-coupled assay that measures the depletion of NADH via absorbance at 340 nm and uses lactate dehydrogenase (LDH) was employed to determine the activity of pyruvate kinase (PK). To determine the AC50 (concentration of activator necessary to achieve half-maximal activation) of the different small molecules with PKM2, assays were conducted in a 96-well format using 200 μL/well assay volume with 10 nM human recombinant PKM2 (Sigma, St. Louis, MO, USA, Cat No. SAE0021) or PKM1 (Sigma, […], Cat No. SRP0415), differing concentrations of activator, 0.5 mM PEP, 1 mM ADP, 0.2 mM NADH, and 8 U of LDH in a buffer of 50 mM Tris-HCl (pH 7.4), 100 mM KCl, and 5 mM MgCl2 as previously described. A SPECTROstar Omega plate reader (BMG LABTECH Inc., Cary, NC, USA) monitored absorbance at 340 nm. The MARS software suite was utilized to determine initial velocities. Data were normalized to DMSO (dimethyl sulfoxide)-treated enzyme activity, as previously described.

[2] = biological target: T2, pyruvate kinase (PK) activity in 661W cells (Mus musculus, UniProt P52480); experiment: PK activity in 661W cell lysates after 2 h incubation with activator; format: cell-based
T2 construct: endogenous in cells; host or cells: 661W photoreceptor-like cells
Description: The potency and efficacy of each compound, 1 through 5, was assessed with recombinant human PKM2 using an enzyme-coupled assay that uses lactate dehydrogenase and measures the reduction in NADH via absorbance at 340 nm. […] To assess the ability of this pyridazinoindolone series of compounds to cross cellular membranes and increase PK activity, we utilized 661W cells, which are immortalized photoreceptor-like cells that express cone markers.
Cell culture. Next, 661W cells were incubated with either DMSO or different concentrations of small-molecule PKM2 activator for 2 h, lysed and homogenized in RIPA Lysis and Extraction Buffer (Thermo Fisher, Waltham, MA, USA, Cat No. 89900) with protease inhibitors (Complete-Mini, Roche Diagnostics, Indianapolis, IN, USA), and centrifuged at 10,000 rpm for 10 min to remove cellular debris. The supernatant (4–8 μL) was then used to assess the pyruvate kinase activity as described above. The total protein content was determined using the Pierce BCA protein assay kit (Thermo Fisher, Waltham, MA, USA, Cat No. 23225) with the Pierce™ Bovine Serum Albumin Standard Pre-Diluted Set (Thermo Fisher, Waltham, MA, USA, Cat No. 23208) and used to normalize activity as described previously.

[3] = system: caspase 3 and 7 activation in 661W cells; experiment: Caspase 3/7 activity assay in 661W cells (Caspase-Glo 3/7); format: cell-based
Description: (§1) To be confident the pyridazinoindolone core could be utilized in future medicinal chemistry efforts, its photoreceptor neuroprotective effect was assessed. […] Fas signaling has a critical role in caspase activation and photoreceptor apoptosis after experimental retinal detachment. 661W cells die via caspase-mediated mechanisms, and the Fas-ligand (FasL) treatment of these cells leads to the activation of caspases and subsequent death, analogous to the in vivo experimental retinal detachment model. Furthermore, similar to photoreceptors, 661W cells express PKM2 (Figure 4a), and these cells have been used to garner information on the role of metabolism in photoreceptor degeneration. As such, this is a suitable in vitro model of photoreceptor stress that can be utilized to assess the consequences of reprogramming metabolism by pharmacologically activating PKM2 [9]. 661W cells were treated with FasL and either compound 2 or vehicle (DMSO).
Caspase 8 and caspase 3/7 activity was measured using luminescent assay kits (Caspase-Glo 8 and 3/7 Assay Systems, Promega, Madison, WI, USA, Cat Nos. G8200 and G8090, respectively). […] As previously published, caspase activity was measured 8 h after treatment by incubating cells with substrate for 1 h as per the manufacturer’s instructions. A plate reader luminometer (BMG Labtech, Inc., Cary, NC, USA) assessed luminescence.

[4] = Aqueous solubility (Eurofins Panlabs, HPLC-UV/Vis); format: physicochemical; settings: aqueous buffer, kinetic from dmso stock; PBS, pH 7.4, 24 h, room temperature (Table 1)
Description: In brief, each compound was tested at a concentration of 200 μM in PBS, pH 7.4, and room temperature. […] The area of the principal peak in a calibration standard for each compound (200 μM) in organic solvent (60/40 v/v% methanol: water) was compared to the area of the corresponding peak in the PBS sample [42]. Compounds 16–21 underwent solubility testing at Analiza (Cleveland, OH, USA), a contract research organization. Five hundred microliters of PBS, pH 7.4 was added to each amount of compound provided. The samples were vortexed briefly and then placed on a rotary shaker at 200 RPM for 24 h at ambient temperature. Thereafter, the samples were vacuum filtered through a 0.45-micron membrane, and the filtrates were injected into a nitrogen detector for quantification. The nitrogen detector was calibrated using standards, and the filtrates were quantitated based on the calibration curve.

[5] = system: 661W cells; experiment: Cell viability of 661W cells (RealTime-Glo MT); format: cell-based; settings: for cell viability: in presence of FasL, 48 h, versus vehicle
Description: as §1
A luminescent assay kit (RealTime-Glo MT Cell Viability Assay, Promega, Madison, WI, USA, Cat No. G9711) was utilized to assess cell viability. As above, 661W cells were seeded in 96-well plates (Nunc, Rochester, NY, USA) at 2500 cells/well 1 day before treatment. The 661w cells were also pre-treated with compound 2 or DMSO for 2 h before adding 500 ng/mL FasL and 250 ng/mL HA. Viability was measured 48 h after the addition of these latter reagents. As with the caspase assays, luminescence was monitored via a plate reader luminometer (BMG Labtech, Inc., Cary, NC, USA).

[6] = no FasL, concentration near AC50 or more than 10-fold greater

T1 sequence (P14618 whole entry): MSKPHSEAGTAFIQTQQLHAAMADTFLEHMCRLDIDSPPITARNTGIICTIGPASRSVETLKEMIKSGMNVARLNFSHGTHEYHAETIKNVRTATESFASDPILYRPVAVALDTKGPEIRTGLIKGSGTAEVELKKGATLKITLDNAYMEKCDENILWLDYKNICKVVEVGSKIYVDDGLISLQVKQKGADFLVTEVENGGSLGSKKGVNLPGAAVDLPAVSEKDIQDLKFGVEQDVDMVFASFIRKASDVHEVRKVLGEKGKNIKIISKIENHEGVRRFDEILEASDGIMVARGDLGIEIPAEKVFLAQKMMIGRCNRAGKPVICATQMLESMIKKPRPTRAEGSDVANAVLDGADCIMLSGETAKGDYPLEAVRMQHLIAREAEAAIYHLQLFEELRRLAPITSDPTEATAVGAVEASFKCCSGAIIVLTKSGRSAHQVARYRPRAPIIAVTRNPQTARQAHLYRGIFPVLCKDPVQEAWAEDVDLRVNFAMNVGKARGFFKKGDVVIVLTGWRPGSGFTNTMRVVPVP
T2 sequence (P52480 whole entry): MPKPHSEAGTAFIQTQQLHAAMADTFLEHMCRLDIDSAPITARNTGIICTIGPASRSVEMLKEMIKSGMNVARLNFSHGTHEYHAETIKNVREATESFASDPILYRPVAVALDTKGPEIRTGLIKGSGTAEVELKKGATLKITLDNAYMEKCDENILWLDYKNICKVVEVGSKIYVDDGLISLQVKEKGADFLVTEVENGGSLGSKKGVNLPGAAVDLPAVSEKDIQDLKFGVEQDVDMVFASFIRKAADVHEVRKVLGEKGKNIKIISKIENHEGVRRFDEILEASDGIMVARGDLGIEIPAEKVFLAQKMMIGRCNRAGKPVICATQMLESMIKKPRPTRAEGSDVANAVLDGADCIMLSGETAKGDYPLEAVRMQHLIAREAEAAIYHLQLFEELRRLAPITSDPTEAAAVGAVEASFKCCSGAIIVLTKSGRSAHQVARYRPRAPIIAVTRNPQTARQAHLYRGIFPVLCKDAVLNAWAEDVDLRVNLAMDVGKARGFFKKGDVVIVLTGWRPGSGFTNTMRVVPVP

SMILES: Cn1c2cc([S+](C)[O-])ccc2c2cnn(Cc3cccc(N)c3)c(=O)c21 (stereo not shown) [Compound 2]
- AC50 ([1]; recombinant human PKM2, n = 3, best-fit value ± std. error): 50 ± 12 nM
- Emax ([1]; recombinant human PKM2, n = 3, normalized to DMSO-treated enzyme, read-out: Recombinant PKM2 Max Activation): 292 ± 20%
- AC50 ([2]; n = 3): 120 ± 45 nM
- Emax ([2]; n = 3, read-out: 661W Cells Max Activation): 355 ± 26%
- caspase 3 and 7 activation ([3]; in presence of 500 ng/mL FasL, highest concentration tested, 8 h, versus DMSO): significantly decreased
- caspase 3 and 7 activity, compound alone [3, 6]: no significant effect
- solubility at 24 h [4]: 99.8 µM (≈ 36.6 µg/mL)
- cell viability ([5]; 200 nM): significantly improved
- cell viability ([5]; 2 μM): trended towards improved cell viability
- cell viability, compound alone [5, 6]: no significant effect
